Results taken from patent US20180360766A1, “OVARIAN CANCER SPECIFICALLY TARGETED BIODEGRADABLE AMPHIPHILIC POLYMER, POLYMER VESICLE PREPARED THEREBY AND USE THEREOF” (BRIGHTGENE BIO-MEDICAL TECHNOLOGY CO., LTD., priority 2016, published 2018).
Where a name gives a salt, the structure may show the parent alone.

How the values were obtained:
in vivo = details: Balb/C nude, mouse, 10 mg/kg
A2780 cells = test: Toxicity of drug-loaded vesicles to A2780 by MTT; format: cell-based; details: Homo sapiens; A2780, CPT.HCl, 4 h co-cultivation + 44 h; transferrin-CLPs with 30% transferrin
[1] = tested on: A2780 subcutaneous ovarian cancer; test: Antitumor effect, A2780 subcutaneous ovarian cancer; details: at 10th day

| half-life (in vivo) [min] | Structure (SMILES) | IC50 (A2780 cells) [µg/mL] | body weight decrease [1] [%] |
| --- | --- | --- | --- |
| 16.2 | COc1cccc2c1C(=O)c1c(O)c3c(c(O)c1C2=O)C[C@@](O)(C(=O)CO)C[C@@H]3O[C@H]1C[C@H](N)[C@H](O)[C@H](C)O1 [DOX.HCl, doxorubicin hydrochloride] |  |  |
|  | CCc1c2c(nc3ccc(OC(=O)N4CCC(N5CCCCC5)CC4)cc13)-c1cc3c(c(=O)n1C2)COC(=O)[C@]3(O)CC [CPT.HCl, irinotecan hydrochloride] | 4.11 | 18 |
